# Reference: patent publication US20250282895A1, “PHARMACEUTICAL COMPOSITIONS OF CHEMOTHERAPEUTIC AGENTS BASED ON BETA-S[…]-AMINO ACID DERIVATIVES” (priority 2021, published 2025)
# Where a name gives a salt, the structure may show the parent alone.
# Test: Stability of Compound (1c) hydrochloride salt/SBE6.5-β-CD guest-host inclusion complex in 0.9% saline (HPLC/UV)
# Assay type: physicochemical
# Settings: SBE6.5-β-CD complex in 0.9% saline
# Protocol: A stock solution was prepared by dissolving 68.8 mg (0.206 mmol) of Compound (1c) (free base) in about 20.0 mL of a mixture of acetonitrile/water (1:1, v/v) with vortexing in a clean graduated glass cylinder (25 mL). A solution of 0.407 mL of 0.5072 M aq. HCl (0.206 mmol, 1.0 eq.; Fluka, 318957) was added with gentle vortexing, and the resulting clear solution was further diluted to 25.0 mL with a mixture of acetonitrile/water (1:1, v/v) with gentle vortexing to afford a stock solution of Compound (1c) as a mono-HCl salt of a concentration 2.75 mg/mL. This solution was filtered through a 0.45 μm nylon syringe filter into a clean 50 mL Erlenmeyer flask. Aliquots of 2.0 mL (2× 1.0 mL; 2× 2.75 mg) of the stock solution were rapidly pipetted into clean 12 mL scintillation vials. The aliquots were frozen at −78° C. (dry ice/acetone bath) and lyophilized at about 100 mTorr for about 16 hours to provide test vials each containing 6.1 mg (0.0165 mmol) of Compound (1c) mono-hydrochloride salt (mono-HCl salt) (corresponding to 5.5 mg of Compound (1c)),free base, as a colorless powdery solid.
# A cyclodextrin derivative (270 mg; SBE6.5-β-CD, Captisol®, average MW 2,163 g/mol) was added to 6.1 mg (0.0165 mmol) of(S)-3-amino-4-(5-(bis(2-chloroethyl)amino)-2-methylphenyl) butanoic acid mono hydrochloride salt (Compound (1c) mono-HCl salt) in a 12 mL glass vial and dissolved in 3 mL to 4 mL of double-distilled water by vortexing for about 30 sec to provide a clear, colorless solution. The solution was filtered through a 0.45 μm nylon syringe filter into a 12 mL glass vial. The filter was washed twice with double-distilled water (each about 0.5 mL) to provide a clear colorless solution having a pH from 4.4 to 4.7. The filtered solution was frozen at −78° C. (dry ice/acetone bath) and the solvent was lyophilized off at about 100 mTorr for about 16 hours to provide a colorless powdery solid consisting of 6.1 mg (0.0165 mmol) of Compound (1c) mono-HCl salt (corresponding to 5.5 mg of Compound (1c) as free base) and 270 mg of SBE6.5-β-CD, Captisol®). Several vials with the cyclodextrin derivative/Compound (1c) mono-HCl salt guest-host inclusion complex were prepared according to this method.
# The cyclodextrin derivative/Compound (1c) mono-HCl salt guest-host inclusion complex was reconstituted by dissolving the guest-host inclusion complex in 0.86 mL of 0.9% saline to provide 1.0 mL of a solution having a nominal concentration of 6.1 mg/mL of Compound (1c) mono-HCl salt guest-host inclusion complex which equates to a nominal concentration of 5.5 mg/mL of the Compound (1c)) guest-host inclusion complex.
# A 0.5 mL aliquot of this solution was diluted with 5.0 mL of 0.9% saline, and the pH adjusted with 5 μL of a saturated aqueous NaHCO3 solution to provide 5.5 mL of a clear, colorless solution having a nominal concentration of 0.5 mg/mL Compound (1c) compound and a pH from 5.3 to 5.5.
# A 1.0 mL aliquot of the reconstituted solution was diluted with 4.5 mL of 0.9% saline, and the pH was adjusted with about 10 μL of a saturated aqueous NaHCO3 solution to provide 5.5 mL of a clear, colorless solution having a nominal concentration of 1.0 mg/mL of Compound (1c) and a pH of 5-6.
# A 1.0 mL aliquot of the reconstituted solution was diluted with 1.75 mL of 0.9% saline, and the pH was adjusted with about 10 μL of a saturated aqueous NaHCO3 solution to provide 2.75 mL of a clear, colorless solution having a nominal concentration of 2.0 mg/mL of Compound (1c) and a pH of 5-6.
# The solutions were placed in glass vials and stored at either room temperature (about 25° C.) or refrigerated (about 0° C.), and the amount of Compound (1c) was measured at intervals using analytical high pressure liquid chromatography coupled to a UV detector (HPLC/UV) as described in Example 4.
smiles,measurement,setting,value
"Cc1ccc(N(CCCl)CCCl)cc1C[C@H](N)CC(=O)O [Compound (1c)•HCl, (S)-3-amino-4-(5-(bis(2-chloroethyl)amino)-2-methylphenyl) butanoic acid mono hydrochloride salt]",Compound (1c) (% AUC),"nominal 0.125 mg/mL, 0° C., 31 hours",93 % AUC
same,Compound (1c) (% AUC),"nominal 0.125 mg/mL, 25° C., 2 hours",98 % AUC
same,Compound (1c) (% AUC),"nominal 0.5 mg/mL, 0° C., 9 hours",99 % AUC
same,Compound (1c) (% AUC),"nominal 0.5 mg/mL, 25° C., 2 hours",97 % AUC
same,Compound (1c) (% AUC),"nominal 1.0 mg/mL, 0° C., 31 hours",100 % AUC
same,Compound (1c) (% AUC),"nominal 1.0 mg/mL, 25° C., 2 hours",91 % AUC
same,Compound (1c) (% AUC),"nominal 2.0 mg/mL, 0° C., 31 hours",91 % AUC
same,Compound (1c) (% AUC),"nominal 2.0 mg/mL, 25° C., 2 hours",99 % AUC
